Results taken from publication PMC12799587, “Predicting compounds that interact with the 2 known agonist-induced conformations of the human β1-adrenoceptor” (Molecular Pharmacology, 2025).
“And” between values parts separate entries of the source, which are not always exact repeats. Identical values can stand only once.

Key:
β1-AR [1] = target: T1, β1-AR (Homo sapiens, UniProt P08588); assay: 3H-CGP12177 whole-cell binding in CHO-β1-CRE-SPAP cells
β1-AR [2] = target: T1, β1-AR; assay: Summary of pharmacological outcome at the β1-AR (CHO-β1-luciferase or CHO-β1-SPAP cells); settings: for Pharmacological Outcome: CCE/IBS conformation / Pharmacological Outcome: SCE conformation: β1-AR, summary; for Evidence of SCE activation: evidence A–D as outlined in the Introduction, CHO-β1-luciferase or CHO-β1-SPAP cells
β1-AR [3] = target: T1, β1-AR; assay: CRE-SPAP production in CHO-β1-CRE-SPAP cells; assay type: cell-based; design: expressed in transfected cells; host or cells: CHO-K1 clonal lines (CHO-β1-CRE-luc, CHO-β1-CRE-SPAP); settings: for EC50 / Log EC50: agonist action; for EC50: read-out: Log EC50 (converted); for % Isoprenaline: response compared with 10 μM isoprenaline
Description: (§1) Many agonist responses were best described by a one-site sigmoidal agonist concentration-response curve.
(§2) In experiments where 3 different fixed concentrations of the same antagonist were used, Schild plots were constructed using equation (6):(6) logDR-1=logB-logKD
(§3) These points were then fitted to a straight line. A slope of 1 then indicates competitive antagonism.[39]
(§4) Where clear partial agonism was present (eg, Fig. 3D), the partial agonist affinity was calculated by the method of Stephenson[40] using equation 7.
(§5) (7) KDpartialagonist=Y×P/1-YwhereY=A2-A1/A3 where [P] is the concentration of the partial agonist, [A1] is the concentration of the agonist at the point where the fixed partial agonist causes the same response, [A2] is the concentration of agonist causing a given response above that achieved by the partial agonist, and [A3] is the concentration of the agonist, in the presence of the partial agonist, causing the same stimulation as [A2].
where N is the percentage of site 1, [A] is the concentration of agonist, and EC1_50 and EC2_50 are the respective EC50 values for the 2 agonist sites.

β1-AR [4] = target: T1, β1-AR; assay: CRE-luciferase production in CHO-β1-CRE-luciferase cells; settings: for % isop: response compared to 10 μM isoprenaline; for Log ratio of affinities: catecholamine vs secondary conformation; for Log KD Secondary Conformation, CGP12177 as agonist: rightward shift of CGP12177 response; for Log EC50: agonist action
human β2-AR [5] = target: T2, human β2-AR (Homo sapiens, UniProt P07550); assay: CRE-SPAP production in CHO-β2-CRE-SPAP cells; assay type: cell-based; design: expressed in transfected cells; host or cells: CHO-K1 clonal line (CHO-β2-CRE-SPAP); settings: for EC50 / Log EC50: agonist action; for % Isoprenaline: response compared with 10 μM isoprenaline; for Log ratio of affinities: cimaterol vs CGP12177 as agonist
T2 sequence (P07550 whole entry): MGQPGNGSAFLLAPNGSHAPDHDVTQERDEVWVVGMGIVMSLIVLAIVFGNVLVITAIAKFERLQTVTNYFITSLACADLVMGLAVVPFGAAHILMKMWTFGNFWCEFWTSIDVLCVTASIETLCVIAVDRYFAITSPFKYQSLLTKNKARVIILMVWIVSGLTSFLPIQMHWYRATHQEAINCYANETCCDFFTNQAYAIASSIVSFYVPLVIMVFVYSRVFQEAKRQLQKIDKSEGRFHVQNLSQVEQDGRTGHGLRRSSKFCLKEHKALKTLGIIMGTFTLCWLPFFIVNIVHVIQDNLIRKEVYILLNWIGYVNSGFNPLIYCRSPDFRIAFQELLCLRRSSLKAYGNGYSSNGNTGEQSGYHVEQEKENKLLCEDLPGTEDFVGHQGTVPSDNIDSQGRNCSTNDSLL
Description: as §1, §2, §3, §4, §5

human β2-AR [6] = target: T2, human β2-AR; assay: 3H-CGP12177 whole-cell binding in CHO-β2-CRE-SPAP cells; settings: for β2-Selectivity: β2 over β1 affinity from whole-cell binding
[7] = Log EC50, agonist action, CHO-β1-CRE-luciferase cells, given as log EC50 (negative)
[8] = CHO-β1-CRE-luciferase cells, Gaddum, or Stephenson for partial agonists (a)
[9] = Log KD (CGP12177 as Agonist), rightward shift of CGP12177 response
[10] = Log KD (Cimaterol as Agonist), rightward shift of cimaterol response, Gaddum, or Stephenson (a)
[11] = rightward shift of CGP12177 response, CHO-β1-CRE-SPAP cells
[12] = rightward shift of cimaterol response, CHO-β1-CRE-SPAP cells, Gaddum, or Stephenson (a)
[13] = CHO-β1-CRE-luciferase cells, given as log EC50 (negative)
[14] = rightward shift of CGP12177 response

T1 sequence (P08588 whole entry): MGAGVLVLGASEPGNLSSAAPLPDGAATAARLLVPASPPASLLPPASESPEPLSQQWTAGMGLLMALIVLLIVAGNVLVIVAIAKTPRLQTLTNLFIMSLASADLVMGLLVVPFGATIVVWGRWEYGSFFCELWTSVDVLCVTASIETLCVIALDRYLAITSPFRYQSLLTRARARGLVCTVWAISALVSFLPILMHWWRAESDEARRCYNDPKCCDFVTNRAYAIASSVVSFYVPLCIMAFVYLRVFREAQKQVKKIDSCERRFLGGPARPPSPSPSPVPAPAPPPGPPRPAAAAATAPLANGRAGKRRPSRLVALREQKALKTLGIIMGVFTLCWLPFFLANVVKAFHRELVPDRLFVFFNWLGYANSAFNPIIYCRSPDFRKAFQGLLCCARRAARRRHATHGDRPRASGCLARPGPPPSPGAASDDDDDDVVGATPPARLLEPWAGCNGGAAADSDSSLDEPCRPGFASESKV

SMILES | Kd (β1-AR [1]) [nM] | Pharmacological Outcome: CCE/IBS conformation (β1-AR [2]) | Pharmacological Outcome: SCE conformation (β1-AR [2]) | EC50 (β1-AR [3]; CHO-β1-CRE-SPAP cells) [nM] | % Isoprenaline (β1-AR [3]; CHO-β1-CRE-SPAP cells) | % isop (β1-AR [4]; CHO-β1-CRE-luciferase cells) | EC50 (human β2-AR [5]) [nM] | % Isoprenaline (human β2-AR [5]) [%] | Kd (human β2-AR [6]) [nM] | β2-Selectivity (human β2-AR [6]) [fold] | Evidence of SCE activation (β1-AR [2]) | Log KD Secondary Conformation, CGP12177 as agonist (β1-AR [4]; [8]) | Kd (human β2-AR [5]; [10]) [nM] | Log EC50 (β1-AR [3]; CHO-β1-CRE-SPAP cells) | Log EC50 (β1-AR [4]; [13]) | Log EC50 (human β2-AR [5]) | other results
CC(C)(Cc1c[nH]c2ccccc12)NCC(O)COc1ccccc1C#N (stereo not drawn) [Bucindolol, 2-[2-hydroxy-3-[[2-(1H -indol-3-yl)-1,1-dimethyl-ethyl]amino]propoxy]benzonitrile, reference compound] | 0.575 | Agonist (biphasic) | Agonist (biphasic) | 0.759 | 84.5 ± 2.4% | 23.7 ± 1.7% | 0.2 | 70.3 ± 2.0 | 0.0513 | 11.2 | – | – | – | – | – | – | % at EC501 (β1-AR [4]; % of the response occurring via first component, CHO-β1-CRE-luciferase cells): 23.3 ± 2.4%; EC50 (β1-AR [4]; EC501 (log EC50 of first component), biphasic concentration response, CHO-β1-CRE-luciferase cells): 0.537 nM; EC50 (β1-AR [4]; EC502 (log EC50 of second component), biphasic concentration response, CHO-β1-CRE-luciferase cells): 57.5 nM
C=CCc1ccccc1OCC(O)CNC(C)C (racemic) [Alprenolol, (RS)-1-(2-allylphenoxy)-3-(isopropylamino)propan-2-ol, reference compound] | – | Agonist (biphasic) | Agonist (biphasic) | – | 56.7 ± 3.7% | 3.2 ± 0.8% | – | – | – | – | – | – | – | – | – | – | % at EC501 (β1-AR [3]; % of the response occurring via first component, CHO-β1-CRE-SPAP cells): 62.5 ± 2.7%
CC(C)NCC(O)COc1cccc2[nH]ccc12 (racemic) [Pindolol, (RS)-1-[(1H -indol-4-yl)oxy]-3-(isopropylamino)propan-2-ol, reference compound] | – | Agonist (biphasic) | Agonist (biphasic) | – | – | 11.7 ± 1.4% | – | – | – | – | – | – | – | – | – | – | –
C=CCOc1ccccc1OCC(O)CNC(C)C (racemic) [Oxprenolol, (RS)-1-[2-(allyloxy)phenoxy]-3-(isopropylamino)propan-2-ol, reference compound] | – | Agonist (biphasic) | Agonist (biphasic) | – | – | – | – | 40.1 ± 2.3 | – | – | – | – | – | – | – | – | –

The next lines start with results.

Kd (β1-AR [1]) [nM] | Pharmacological Outcome: CCE/IBS conformation (β1-AR [2]) | Pharmacological Outcome: SCE conformation (β1-AR [2]) | EC50 (β1-AR [3]; CHO-β1-CRE-SPAP cells) [nM] | % Isoprenaline (β1-AR [3]; CHO-β1-CRE-SPAP cells) | % isop (β1-AR [4]; CHO-β1-CRE-luciferase cells) | EC50 (human β2-AR [5]) [nM] | % Isoprenaline (human β2-AR [5]) [%] | Kd (human β2-AR [6]) [nM] | β2-Selectivity (human β2-AR [6]) [fold] | Evidence of SCE activation (β1-AR [2]) | Log KD Secondary Conformation, CGP12177 as agonist (β1-AR [4]; [8]) | Kd (human β2-AR [5]; [10]) [nM] | Log EC50 (β1-AR [3]; CHO-β1-CRE-SPAP cells) | Log EC50 (β1-AR [4]; [13]) | Log EC50 (human β2-AR [5]) | SMILES | other results
1120 | Agonist | – | 339 | 53.6 ± 3.1% | 2.7 ± 0.8% | 363 | 15.2 ± 1.2 | 977 | 1.1 | None | No shift 10 μM | 457 | – | – | – | COc1ccc(OCC(O)CNCCc2c[nH]c3ccccc23)cc1 (stereo not drawn) [VL06, 1-[2-(1H -indol-3-yl)ethylamino]-3-(4-methoxyphenoxy)propan-2-ol] | Kd (β1-AR [4]): 347 nM; EC50 (β1-AR [4]; [7]): 1410 nM; Log ratio of affinities (β1-AR [4]; CHO-β1-CRE-luciferase cells): >1.46; Kd (human β2-AR [5]; [9]): 1170 nM; Log ratio of affinities (human β2-AR [5]): 0.41
– | – | – | – | – | – | – | 55.1 ± 2.7 | – | – | – | – | – | – | – | – | CC(C)(C)NC[C@@H](O)COc1cccc2c1CCC(=O)N2 [VL04, 5-[(2R)-3-(tert-butylamino)-2-hydroxypropoxy]-3,4-dihydro-1H -quinolin-2-one] | –
– | No receptor interaction | No receptor interaction | – | – | – | – | – | 6760 | – | None | No shift 10 μM | 3720 | No response | No response | No response | C=CCc1ccccc1OCCNCCCOC [VL12, 3-methoxy-N -[2-(2-prop-2-enylphenoxy)ethyl]propan-1-amine] | Log KD Secondary Conformation, CGP12177 as agonist (β1-AR [3]; [11]): No shift 10 μM; Log KD Catecholamine conformation Cimaterol as Agonist (β1-AR [3]; [12]): No shift 10 μM; Log KD Catecholamine conformation Cimaterol as Agonist (β1-AR [4]; rightward shift of cimaterol response, CHO-β1-CRE-luciferase cells, Gaddum, or Stephenson for partial agonists (a)): No shift at 10 μM; Log KD (CGP12177 as Agonist) (human β2-AR [5]; [14]): No shift 10 μM
24 | Agonist | – | 5.01 | 62.3 ± 3.8% | 9.7 ± 0.8% | 3.8 | 63.2 ± 3.2 | 12.3 | 1.9 | None | No shift 10 μM | – | – | – | – | COc1ccccc1OC[C@@H](O)CNC(C)C [VL05, (2S)-1-(2-methoxyphenoxy)-3-(propan-2-ylamino)propan-2-ol] | Kd (β1-AR [4]): 10 nM; EC50 (β1-AR [4]; [7]): 64.6 nM; Log ratio of affinities (β1-AR [4]; CHO-β1-CRE-luciferase cells): >3
186 | Agonist | – | 18.6 | 67% and 66.9 ± 2.5% | 14% and 13.8 ± 1.5% | 39.8 | 28.7 ± 2.0 | 89.1 | 2.1 | None | – | 37.2 | – | – | – | O[C@H](CNCCc1c[nH]c2ccccc12)COc1ccc(F)cc1 [VL10, (2R)-1-(4-fluorophenoxy)-3-[2-(1H -indol-3-yl)ethylamino]propan-2-ol] | Kd (β1-AR [3]): 117 nM; EC50 (β1-AR [4]; [7]): 155 nM; Log ratio of affinities (β1-AR [4]; CHO-β1-CRE-luciferase cells): 1.64; Kd (human β2-AR [5]; [9]): 138 nM; Log ratio of affinities (human β2-AR [5]): 0.57
– | No receptor interaction | No receptor interaction | – | – | – | – | – | 3240 | – | None | No shift 10 μM | 2090 | No response | No response | No response | Cc1cc(C)c(OC[C@@H](O)CNC(C)C)c(C)c1 [VL08, (2S)-1-(propan-2-ylamino)-3-(2,4,6-trimethylphenoxy)propan-2-ol] | Log KD Secondary Conformation, CGP12177 as agonist (β1-AR [3]; [11]): No shift 10 μM; Log KD Catecholamine conformation Cimaterol as Agonist (β1-AR [3]; [12]): No shift 10 μM; Log KD (CGP12177 as Agonist) (human β2-AR [5]; [14]): No shift 10 μM
5.13 | High-affinity neutral antagonist | Low-affinity neutral antagonist | – | – | – | – | – | – | – | None | – | 0.0468 | No response | No response | No response | CC(C)(C)NC[C@H](O)COc1cccc2c1CCCC2=O [VL03, 5-[(2S)-3-(tert-butylamino)-2-hydroxypropoxy]-3,4-dihydro-2H -naphthalen-1-one] | Kd (β1-AR [3]; Log KD Catecholamine conformation Cimaterol as Agonist, rightward shift of cimaterol response, CHO-β1-CRE-SPAP cells, Gaddum, or Stephenson (a)): 1.78 nM; Kd (β1-AR [3]; Log KD Secondary Conformation CGP12177 as Agonist, rightward shift of CGP12177 response, CHO-β1-CRE-SPAP cells): 562 nM; Schild slope (β1-AR [3]; cimaterol as agonist, CHO-β1-CRE-SPAP cells): 0.96 ± 0.05; Schild slope (human β2-AR [5]; CGP12177 as agonist): 1.00 ± 0.03; Kd (human β2-AR [5]; [9]): 0.0759 nM; Schild slope (human β2-AR [5]; cimaterol as agonist): 0.99 ± 0.04
– | No receptor interaction | No receptor interaction | – | – | – | – | – | 8910 | – | None | No shift 10 μM | – | No response | No response | No response | OCCOc1ccc(CNCCc2c[nH]c3ccccc23)cc1 [VL11, 2-[4-[[2-(1H -indol-3-yl)ethylamino]methyl]phenoxy]ethanol] | Log KD Secondary Conformation, CGP12177 as agonist (β1-AR [3]; [11]): No shift 10 μM; Log KD Catecholamine conformation Cimaterol as Agonist (β1-AR [3]; [12]): No shift 10 μM; Log KD (CGP12177 as Agonist) (human β2-AR [5]; [14]): No shift 10 μM; Log KD (Cimaterol as Agonist) (human β2-AR [5]; rightward shift of cimaterol response, Gaddum, or Stephenson (a)): No shift 10 μM
